Laboratory results: ChEMBL document CHEMBL1201862, “PubChem BioAssay data set” (2004)
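Five compound concentrations were applied to cells in 96-well plates for 48 hours; endpoints were derived by simple linear interpolation of the resulting dose-response curve. GI50 is the concentration that inhibits growth by half.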 Calls of active or inactive are those of the source. Rule as the data show it: active = GI50 up to about 1.1 µM and inactive = higher.

Tests used:
Experiment in all cases: inhibition of tumour cell growth, NCI panel, 48 h
A498 = test system: A498
BT-549 = test system: BT-549
CCRF-CEM = test system: CCRF-CEM
DMS-273 = test system: DMS-273
HCT-116 = test system: HCT-116
HCT-15 = test system: HCT-15
HT-29 = test system: HT-29
KM12 = test system: KM12
MDA-N = test system: MDA-N
MOLT-4 = test system: MOLT-4
Malme-3M = test system: Malme-3M
OVCAR-3 = test system: OVCAR-3
OVCAR-8 = test system: OVCAR-8
PC-3 = test system: PC-3
RPMI-8226 = test system: RPMI-8226
RXF 393 = test system: RXF 393
SF-268 = test system: SF-268
SK-MEL-2 = test system: SK-MEL-2
SNB-75 = test system: SNB-75
TK-10 = test system: TK-10

Row | SMILES | GI50 (A498) | GI50 (BT-549) | GI50 (CCRF-CEM) | GI50 (DMS-273) | GI50 (HCT-116) | GI50 (HCT-15) [µM] | GI50 (HT-29) | GI50 (KM12) | GI50 (MDA-N) | GI50 (MOLT-4) | GI50 (Malme-3M) | GI50 (OVCAR-3) | GI50 (OVCAR-8) | GI50 (PC-3) | GI50 (RPMI-8226) | GI50 (RXF 393) | GI50 (SF-268) | GI50 (SK-MEL-2) | GI50 (SNB-75) | GI50 (TK-10)
1 | C/C=C1\C[C@@H]2C(OC)Nc3cc(O)c(OC)cc3C(=O)N2C1 (stereo not given in full) | 0.0273 µM (active) | 0.00437 µM (active) | < 0.01 µM (active) | 0.00129 µM (active) | < 0.01 µM (active) | < 0.01 | < 0.01 µM (active) | 0.0173 µM (active) | < 0.01 µM (active) | < 0.01 µM (active) | < 0.01 µM (active) | < 0.01 µM (active) | < 0.01 µM (active) | < 0.01 µM (active) | < 0.01 µM (active) | < 0.01 µM (active) | < 0.01 µM (active) | < 0.01 µM (active) | < 0.01 µM (active) | < 0.0171 µM (active)
2 | Cc1cccc(C)c1N1C(=O)C(=O)C(c2nc3ccccc3s2)/C(=N/NC(=O)c2ccccc2O)C1=O (stereo not given) | 28.6 µM (inactive) | – | 4.8 µM (inactive) | 4.74 µM (inactive) | 10.3 µM (inactive) | 14.7 | 51.5 µM (inactive) | 35.2 µM (inactive) | – | 8.89 µM (inactive) | 33 µM (inactive) | 18.7 µM (inactive) | 21 µM (inactive) | – | 12.7 µM (inactive) | 3.09 µM (inactive) | 6.75 µM (inactive) | 11 µM (inactive) | 1.05 µM (active) | 25.1 µM (inactive)
3 | O=C1C[S+]([O-])c2ccccc2N1 (stereo not given) | > 100 µM (inactive) | – | > 100 µM (inactive) | 16.8 µM (inactive) | 71.1 µM (inactive) | > 100 | > 100 µM (inactive) | > 100 µM (inactive) | – | > 100 µM (inactive) | > 100 µM (inactive) | > 100 µM (inactive) | > 100 µM (inactive) | – | 45.8 µM (inactive) | > 100 µM (inactive) | 71.8 µM (inactive) | > 100 µM (inactive) | > 100 µM (inactive) | > 100 µM (inactive)
4 | O=C1C=CC(=O)C12CCc1ccccc12 | > 100 µM (inactive) | – | 28.5 µM (inactive) | > 100 µM (inactive) | > 100 µM (inactive) | > 72.8 | > 95.3 µM (inactive) | > 100 µM (inactive) | – | > 44.3 µM (inactive) | > 100 µM (inactive) | > 100 µM (inactive) | > 100 µM (inactive) | – | 12.1 µM (inactive) | > 94.6 µM (inactive) | > 100 µM (inactive) | > 100 µM (inactive) | 51.2 µM (inactive) | > 100 µM (inactive)
5 | COC(=O)/C(=N\Nc1nnc(C)n1N)C(C#N)c1ccccc1 (stereo not given) | – | > 100 µM (inactive) | > 100 µM (inactive) | > 100 µM (inactive) | > 73.1 µM (inactive) | 56.5 | > 63.1 µM (inactive) | > 100 µM (inactive) | 23.4 µM (inactive) | > 100 µM (inactive) | 22.3 µM (inactive) | > 100 µM (inactive) | > 73.3 µM (inactive) | > 100 µM (inactive) | 99.5 µM (inactive) | > 100 µM (inactive) | > 100 µM (inactive) | > 100 µM (inactive) | > 64.9 µM (inactive) | > 100 µM (inactive)
6 | O=C1C=C(c2c(O)ccc3ccccc23)c2ccccc2C1=O | 8.51 µM (inactive) | 2.48 µM (inactive) | 1.86 µM (inactive) | 3.46 µM (inactive) | 2.15 µM (inactive) | 3.57 | 6.97 µM (inactive) | 3.77 µM (inactive) | 2 µM (inactive) | 1.72 µM (inactive) | 5.2 µM (inactive) | 2.32 µM (inactive) | 1.89 µM (inactive) | 2.12 µM (inactive) | 2.35 µM (inactive) | 2.06 µM (inactive) | 6.12 µM (inactive) | 4.68 µM (inactive) | 3.87 µM (inactive) | 12.1 µM (inactive)
